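Method: 48-hour compound exposure of cells in 96-well plates, five concentrations, linear interpolation of endpoints. The concentration for 50% growth inhibition is given as GI50. Definition used: TGI = concentration required for complete inhibition of growth.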
Assays:
Test in all cases: inhibition of tumour cell growth, NCI panel, 48 h
T-47D breast = test system: T-47D breast
EKVX NSCLC = test system: EKVX NSCLC
OVCAR-3 ovarian = test system: OVCAR-3 ovarian
HT29 colon = test system: HT29 colon
OVCAR-5 ovarian = test system: OVCAR-5 ovarian
COLO 205 colon = test system: COLO 205 colon
SK-OV-3 ovarian = test system: SK-OV-3 ovarian
K-562 leukemia = test system: K-562 leukemia
SF-539 CNS = test system: SF-539 CNS
ACHN renal = test system: ACHN renal
NCI-H226 lung = test system: NCI-H226 lung
HOP-92 NSCLC = test system: HOP-92 NSCLC
MDA-MB-435 = test system: MDA-MB-435
KM12 colon = test system: KM12 colon
SK-MEL-2 melanoma = test system: SK-MEL-2 melanoma
HS 578T breast = test system: HS 578T breast
MALME-3M melanoma = test system: MALME-3M melanoma
786-0 renal = test system: 786-0 renal
SN12C renal = test system: SN12C renal
NCI-H460 lung = test system: NCI-H460 lung
UACC-62 melanoma = test system: UACC-62 melanoma
DU-145 prostate = test system: DU-145 prostate
MCF7 breast = test system: MCF7 breast
HL-60(TB) leukemia = test system: HL-60(TB) leukemia
RPMI-8226 leukemia = test system: RPMI-8226 leukemia
PC-3 prostate = test system: PC-3 prostate
SNB-19 CNS = test system: SNB-19 CNS
CAKI-1 renal = test system: CAKI-1 renal
OVCAR-8 ovarian = test system: OVCAR-8 ovarian
HCT-116 colon = test system: HCT-116 colon
SR leukemia = test system: SR leukemia
TK-10 renal = test system: TK-10 renal
LOX IMVI melanoma = test system: LOX IMVI melanoma
NCI-H23 lung = test system: NCI-H23 lung
SNB-75 CNS = test system: SNB-75 CNS
HOP-62 NSCLC = test system: HOP-62 NSCLC
IGROV1 ovarian = test system: IGROV1 ovarian
NCI/ADR-RES ovarian = test system: NCI/ADR-RES ovarian
SW-620 colon = test system: SW-620 colon
UO-31 renal = test system: UO-31 renal
U251 CNS = test system: U251 CNS
OVCAR-4 ovarian = test system: OVCAR-4 ovarian
HCC-2998 colon = test system: HCC-2998 colon
UACC-257 melanoma = test system: UACC-257 melanoma
CCRF-CEM leukemia = test system: CCRF-CEM leukemia
A549 NSCLC = test system: A549 NSCLC
SF-268 CNS = test system: SF-268 CNS
SK-MEL-5 melanoma = test system: SK-MEL-5 melanoma
MDA-MB-231 breast = test system: MDA-MB-231 breast
HCT-15 colon = test system: HCT-15 colon
NCI-H522 lung = test system: NCI-H522 lung
M14 melanoma = test system: M14 melanoma
SF-295 CNS = test system: SF-295 CNS
BT-549 breast = test system: BT-549 breast
SK-MEL-28 melanoma = test system: SK-MEL-28 melanoma
A498 renal = test system: A498 renal
MOLT-4 leukemia = test system: MOLT-4 leukemia

Cc1c(Cl)cccc1C(=O)Nc1nc2c(s1)CN(C(=O)c1ccc(C(F)(F)F)cc1)CC2
GI50 (T-47D breast): 199 nM
TGI (T-47D breast): 28800 nM
GI50 (EKVX NSCLC): 285 nM
TGI (EKVX NSCLC): > 50000 nM
GI50 (OVCAR-3 ovarian): 58.3 nM
TGI (OVCAR-3 ovarian): 347 nM
GI50 (HT29 colon): 75.3 nM
TGI (HT29 colon): 9200 nM
GI50 (OVCAR-5 ovarian): 311 nM
TGI (OVCAR-5 ovarian): > 50000 nM
GI50 (COLO 205 colon): 164 nM
TGI (COLO 205 colon): 762 nM
GI50 (SK-OV-3 ovarian): 227 nM
TGI (SK-OV-3 ovarian): > 50000 nM
GI50 (K-562 leukemia): 26.1 nM
TGI (K-562 leukemia): > 50000 nM
GI50 (SF-539 CNS): 92.3 nM
TGI (SF-539 CNS): 387 nM
GI50 (ACHN renal): 267 nM
TGI (ACHN renal): > 40900 nM
GI50 (NCI-H226 lung): 157 nM
GI50 (HOP-92 NSCLC): 877 nM
TGI (HOP-92 NSCLC): 36400 nM
GI50 (MDA-MB-435): 15.4 nM
TGI (MDA-MB-435): 52.1 nM
GI50 (KM12 colon): 113 nM
TGI (KM12 colon): > 50000 nM
GI50 (SK-MEL-2 melanoma): 202 nM
TGI (SK-MEL-2 melanoma): > 50000 nM
GI50 (HS 578T breast): 69.9 nM
TGI (HS 578T breast): > 50000 nM
GI50 (MALME-3M melanoma): 515 nM
TGI (MALME-3M melanoma): 17800 nM
GI50 (786-0 renal): 184 nM
TGI (786-0 renal): > 33300 nM
GI50 (SN12C renal): 284 nM
TGI (SN12C renal): > 50000 nM
GI50 (NCI-H460 lung): 158 nM
TGI (NCI-H460 lung): > 20400 nM
GI50 (UACC-62 melanoma): 130 nM
TGI (UACC-62 melanoma): > 50000 nM
GI50 (DU-145 prostate): 194 nM
TGI (DU-145 prostate): > 50000 nM
GI50 (MCF7 breast): 28.1 nM
TGI (MCF7 breast): > 37700 nM
GI50 (HL-60(TB) leukemia): 108 nM
TGI (HL-60(TB) leukemia): 1250 nM
GI50 (RPMI-8226 leukemia): 198 nM
TGI (RPMI-8226 leukemia): > 34900 nM
GI50 (PC-3 prostate): 117 nM
TGI (PC-3 prostate): > 50000 nM
GI50 (SNB-19 CNS): 171 nM
TGI (SNB-19 CNS): > 50000 nM
GI50 (CAKI-1 renal): 71.1 nM
TGI (CAKI-1 renal): > 50000 nM
GI50 (OVCAR-8 ovarian): 241 nM
TGI (OVCAR-8 ovarian): > 35300 nM
GI50 (HCT-116 colon): 101 nM
TGI (HCT-116 colon): > 18400 nM
GI50 (SR leukemia): 29.4 nM
TGI (SR leukemia): > 50000 nM
GI50 (TK-10 renal): 934 nM
TGI (TK-10 renal): > 50000 nM
GI50 (LOX IMVI melanoma): 163 nM
TGI (LOX IMVI melanoma): > 23100 nM
GI50 (NCI-H23 lung): 186 nM
TGI (NCI-H23 lung): > 50000 nM
GI50 (SNB-75 CNS): 81.4 nM
TGI (SNB-75 CNS): > 50000 nM
GI50 (HOP-62 NSCLC): 173 nM
TGI (HOP-62 NSCLC): > 50000 nM
GI50 (IGROV1 ovarian): 177 nM
TGI (IGROV1 ovarian): > 50000 nM
GI50 (NCI/ADR-RES ovarian): 41.8 nM
TGI (NCI/ADR-RES ovarian): 2310 nM
GI50 (SW-620 colon): 65.6 nM
TGI (SW-620 colon): > 50000 nM
GI50 (UO-31 renal): 507 nM
TGI (UO-31 renal): > 50000 nM
GI50 (U251 CNS): 145 nM
TGI (U251 CNS): > 35600 nM
GI50 (OVCAR-4 ovarian): 663 nM
TGI (OVCAR-4 ovarian): > 50000 nM
GI50 (HCC-2998 colon): 200 nM
TGI (HCC-2998 colon): > 50000 nM
GI50 (UACC-257 melanoma): 2360 nM
TGI (UACC-257 melanoma): 23900 nM
GI50 (CCRF-CEM leukemia): 135 nM
TGI (CCRF-CEM leukemia): > 50000 nM
GI50 (A549 NSCLC): 124 nM
TGI (A549 NSCLC): > 50000 nM
GI50 (SF-268 CNS): 565 nM
TGI (SF-268 CNS): > 50000 nM
GI50 (SK-MEL-5 melanoma): 175 nM
TGI (SK-MEL-5 melanoma): 6010 nM
GI50 (MDA-MB-231 breast): 344 nM
TGI (MDA-MB-231 breast): > 50000 nM
GI50 (HCT-15 colon): 29.5 nM
TGI (HCT-15 colon): 21200 nM
GI50 (NCI-H522 lung): 25.2 nM
TGI (NCI-H522 lung): 2330 nM
GI50 (M14 melanoma): 48.3 nM
TGI (M14 melanoma): 38400 nM
GI50 (SF-295 CNS): 22.4 nM
TGI (SF-295 CNS): > 50000 nM
GI50 (BT-549 breast): 331 nM
TGI (BT-549 breast): 22900 nM
GI50 (SK-MEL-28 melanoma): 4110 nM
TGI (SK-MEL-28 melanoma): > 50000 nM
GI50 (A498 renal): 64 nM
TGI (A498 renal): 20900 nM
GI50 (MOLT-4 leukemia): 193 nM
TGI (MOLT-4 leukemia): > 50000 nM
